In publication PMC11516055, “From Static to Dynamic Structures: Improving Binding Affinity Prediction with Graph‐Based Deep Learning” (Advanced Science, 2024):

molecular target: T315I Abl kinase domain; assay: not given; parameters: method as in PMID 17804707; conditions: experimental value, PDB ID 2v7a, CASF-2016; cited from earlier work

For CO[C@@H](C(=O)N1Cc2[nH]nc(NC(=O)c3ccc(N4CCN(C)CC4)cc3)c2C1)c1ccccc1 [2v7a], the pKi is given as 8.3.

molecular target: aspartyl protease β-secretase (BACE); assay: not given; parameters: method as in PMID 22468999; conditions: experimental value, PDB ID 3udh; cited from earlier work

In the case of O=C1Nc2ccccc2[C@]12CCNC2 [3udh], the pKi is listed as 2.8.

molecular target: HSP90; assay: not given; parameters: method as in CASF-2016; conditions: HSP90 ligand in CASF-2016, reference structure for docking; ref CASF-2016; cited from earlier work

In the case of CCN(CC)C(=O)c1ccc(O)c(OC)c1 [2XDL], the pKi is listed as 3.10.

molecular target: T1, HSP90 (9-236) (Homo sapiens, UniProt P07900); assay: Surface plasmon resonance (SPR) measurement of Ki on immobilised HSP90 (9-236); format: binding; conditions: Biacore S200, HSP90 (9-236) on CM5 chip, 1 × PBS with 5% DMSO
T1 construct: HSP90 (9‐236) was cross‐linked on the surface of the Series S Sensor Chip CM5
From the text: Next, we performed docking on HSP90 against the ChemBridge DIVERSet‐EXP library, which contains 50,000 small molecules that cover a diverse pharmacophore space. The docked conformers were obtained using Autodock Vina, a widely used open‐source docking software.^[ [16], [60] ^] The reference protein‐ligand structure (PDB ID: 2xdl) was chosen from the test set, CASF‐2016, to identify the binding pocket. Then, the docked poses were used to score and rank the molecules based on the Dynaformer predictions. After that, the top‐ranked compounds were filtered and visually inspected for prioritization, following the approach and criteria described in the literature^[ [7], [61] ^] (see Experimental Section for details). To ensure the fairness of prioritization, we created a pool consisting of molecules among the top 10% from both Dynaformer and the original scoring function in Autodock Vina. From the pool, 20 molecules were chosen without knowing their rankings. Finally, surface plasmon resonance (SPR) experiments were conducted for each of the 20 molecules to measure the inhibition constant K i . In total, 12 of the 20 molecules had measurable binding affinities.
Finally, the binding affinities of the above 20 molecules were experimentally validated. Surface plasmon resonance (SPR) measurements were performed by the Biacore S200 instrument (GE Healthcare Life Sciences). HSP90 (9‐236) was cross‐linked on the surface of the Series S Sensor Chip CM5 (GE Healthcare) at pH 4.0 by an amine coupling kit with 1‐ethyl‐(3‐dimethylaminopropyl)‐carbodiimide hydrochloride (EDC) and NHS. Experiments were performed in a running buffer (1 × PBS with 5% DMSO). Each compound was serially diluted by a factor of two in the running buffer. The compound solution flowed through the surface of the chip at a flow rate of […]. Sensorgrams were analyzed and generated by Biacore Evaluation Software.

Compared with CC1=NNc2nc3c(c(=O)n(Cc4c(F)cccc4Cl)c(=O)n3C)n2C1 [compound 1], Cc1ccc(Cn2c(C)c(C)n3c4c(=O)[nH]c(=O)n(C)c4nc23)cc1 [compound 4] is 12-fold higher in Ki: 0.207 µM for the first, 2.5 µM for the second.

First: COc1cccc(C(=O)Nc2ccc(Oc3ccccc3)cc2)c1OC [compound 2]
Second: CCCC(=O)N1CCN(c2ccc(NC(=O)c3cccc(C)c3OC)cc2)CC1 [compound 11]
The Ki of the first is 190-fold lower: 0.517 µM for the first, 98 µM for the second.

Nc1c(C(=O)c2ccccc2)sc2nc3c(cc12)CCCC3 [compound 5] and O=C(Nc1ccccc1)C1CC(=O)N(c2ccc3c4c(cccc24)CC3)C1 (stereo not shown) [compound 6] are within 1.5-fold of each other in Ki: 3.97 µM for the first, 4.5 µM for the second.

Cc1cccc(C(=O)Nc2ccc3c(c2)OCCO3)c1[N+](=O)[O-] [compound 7] and O=c1[nH]c(=O)c2c(-c3cccc4ccccc34)ccnc2[nH]1 [compound 8] are within 1.5-fold of each other in Ki: 6.9 µM for the first, 10 µM for the second.

Cc1ccc(-c2nc3nc4ccccc4nc3n2CC2CCCO2)cc1 (stereo not shown) [compound 9] and Cc1nn(-c2nc3ccccc3[nH]2)c2c1C(=O)CC(c1ccccc1O)C2 (stereo not shown) [compound 10] are within 1.5-fold of each other in Ki: 68.6 µM for the first, 70 µM for the second.
